Some test systems named below: HOP-62 NSCLC; SK-OV-3 ovarian; KM12 colon; UACC-257 melanoma; HL-60(TB) leukemia; A549 NSCLC; SF-268 CNS; TK-10 renal; CCRF-CEM leukemia; M14 melanoma.
Holding throughout (test): growth of human tumour cells (NCI), 48 h

Structures are written as SMILES.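 Values below derive from 48-hour exposures of cells grown in 96-well plates, with endpoints linearly interpolated between the two concentrations bracketing the appropriate inhibition level. GI50 = concentration required for 50% inhibition of growth. The concentration for full growth arrest is given as TGI.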

Take `O=c1[nH]c(=S)[nH]c(O)c1/C=C1\C=Nc2ccccc21`: the GI50 in the experiment with HOP-62 NSCLC was 3.66 µM; in the experiment with SK-OV-3 ovarian, 15.7 µM; in the experiment on KM12 colon, 1.64 µM; in the experiment on UACC-257 melanoma it was 14.2 µM; with HL-60(TB) leukemia, 2.65 µM; with A549 NSCLC, 37.2 µM. For the same molecule, the GI50 was 2.52 µM in the experiment on SF-268 CNS, 25.1 µM in the experiment with TK-10 renal, 2.12 µM in the experiment with CCRF-CEM leukemia and 10.6 µM with M14 melanoma. In addition, the TGI in the experiment with HOP-62 NSCLC is 38.4 µM; in the experiment with SK-OV-3 ovarian, 81.5 µM; in the experiment with KM12 colon, 3.34 µM; in the experiment with UACC-257 melanoma, 53.6 µM; in the experiment on HL-60(TB) leukemia, 8.88 µM; with A549 NSCLC, above 100 µM. Besides, the TGI was 7.91 µM with SF-268 CNS, above 100 µM in the experiment on TK-10 renal, 6.47 µM in the experiment on CCRF-CEM leukemia and 35.1 µM in the experiment on M14 melanoma.
For the molecule `OCc1ccc(-c2ccc(-c3ccc(CO)o3)o2)o1`, the GI50 was 27.1 µM with HOP-62 NSCLC; above 83.3 µM with SK-OV-3 ovarian; above 100 µM in the experiment with KM12 colon; 2.85 µM in the experiment with UACC-257 melanoma; above 100 µM in the experiment with HL-60(TB) leukemia; above 100 µM in the experiment on A549 NSCLC. Moreover, the GI50 with SF-268 CNS was above 61.7 µM; in the experiment with TK-10 renal, 2.63 µM; in the experiment with CCRF-CEM leukemia, above 100 µM; with M14 melanoma it was above 100 µM. The TGI in the experiment on HOP-62 NSCLC is above 78 µM; in the experiment on SK-OV-3 ovarian, above 100 µM; in the experiment with KM12 colon, above 100 µM; in the experiment on UACC-257 melanoma, 11.9 µM; in the experiment with HL-60(TB) leukemia it was above 100 µM; with A549 NSCLC it was above 100 µM. Also, the TGI was above 100 µM with SF-268 CNS, 19.8 µM with TK-10 renal, above 100 µM in the experiment on CCRF-CEM leukemia and above 100 µM with M14 melanoma.
Consider `CCCC(O)[C@@]1(CC)CC(C)C(O)(C2(C)C[C@H](C)[C@@H](C(CC)C(=O)C(C)[C@@H](O)[C@H](C)C3OC(O)(C(CC)C(=O)O)[C@@H](C)C(O)C3CC)O2)O1` (stereo not given in full), for which the TGI with HOP-62 NSCLC amounted to 2.3 µM; in the experiment on SK-OV-3 ovarian it was 6.54 µM; in the experiment on KM12 colon, 2.06 µM; in the experiment with UACC-257 melanoma it was 1.94 µM; with HL-60(TB) leukemia it was 0.233 µM; in the experiment on A549 NSCLC, 5.71 µM. For the same molecule, the TGI was found to be 2.21 µM in the experiment on SF-268 CNS, 6.74 µM with TK-10 renal, 7.36 µM with CCRF-CEM leukemia and 2.15 µM in the experiment with M14 melanoma.
For the molecule `O=C([O-])c1ccc([I+]c2ccccc2)cc1`, the TGI with HOP-62 NSCLC, in the experiment with SK-OV-3 ovarian, in the experiment on KM12 colon, in the experiment on UACC-257 melanoma, in the experiment with HL-60(TB) leukemia and in the experiment on A549 NSCLC was above 100 µM throughout. Also, the TGI in the experiment on SF-268 CNS, in the experiment with TK-10 renal, with CCRF-CEM leukemia and in the experiment with M14 melanoma was above 100 µM in each case.
As for `O=C1C=CC2(CCC23C=CC(=O)O3)O1` (stereo not given), the TGI in the experiment on HOP-62 NSCLC, in the experiment on SK-OV-3 ovarian, in the experiment on KM12 colon, in the experiment on UACC-257 melanoma, in the experiment on HL-60(TB) leukemia and in the experiment on A549 NSCLC was above 100 µM in each case. Also, the TGI with SF-268 CNS, in the experiment with TK-10 renal, with CCRF-CEM leukemia and in the experiment with M14 melanoma was above 100 µM each time.
For `COc1ccc(N(CC(=O)O)N=O)cc1`, the TGI in the experiment with HOP-62 NSCLC, in the experiment on SK-OV-3 ovarian, with KM12 colon, in the experiment on UACC-257 melanoma, with HL-60(TB) leukemia and in the experiment with A549 NSCLC was above 100 µM throughout. For the same molecule, the TGI in the experiment on SF-268 CNS, in the experiment on TK-10 renal, in the experiment on CCRF-CEM leukemia and with M14 melanoma was above 100 µM each time.
With `[O-][n+]1c2cccc(O)c2[n+]([O-])c2cccc(O)c21`, the TGI in the experiment on HOP-62 NSCLC, with SK-OV-3 ovarian, in the experiment on KM12 colon, with UACC-257 melanoma, with HL-60(TB) leukemia and in the experiment with A549 NSCLC was above 100 µM throughout. Moreover, the TGI was above 100 µM in the experiment on SF-268 CNS, above 100 µM in the experiment on TK-10 renal, 56 µM in the experiment with CCRF-CEM leukemia and above 100 µM in the experiment on M14 melanoma.
With `O=c1c2ccccc2nc(-c2cccc(Cl)c2)n1NC1OC(CO)C(O)C(O)C1O` (stereo not given), the TGI in the experiment on HOP-62 NSCLC, in the experiment on SK-OV-3 ovarian, with KM12 colon, with UACC-257 melanoma, in the experiment on HL-60(TB) leukemia and with A549 NSCLC was above 100 µM in each case. Further, the TGI with SF-268 CNS, in the experiment on TK-10 renal, with CCRF-CEM leukemia and in the experiment with M14 melanoma was above 100 µM in each case.
With `COC(=O)c1ccc(NC(N)=NCCC(C)(C)c2ccc(C(F)(F)F)cc2)nc1`, the GI50 in the experiment with HOP-62 NSCLC is 6.16 µM; in the experiment on SK-OV-3 ovarian it was 6.63 µM; with KM12 colon, 2.65 µM; in the experiment on UACC-257 melanoma it was 2.03 µM; in the experiment with HL-60(TB) leukemia, 1.74 µM; with A549 NSCLC it was 4.83 µM. The GI50 with SF-268 CNS was 6.23 µM; in the experiment on TK-10 renal, 4.75 µM; in the experiment on CCRF-CEM leukemia, 3.01 µM; in the experiment with M14 melanoma, 1.7 µM. Besides, the TGI in the experiment with HOP-62 NSCLC turned out to be 22 µM; in the experiment with SK-OV-3 ovarian it was 19.2 µM; in the experiment on KM12 colon, 9.12 µM; in the experiment with UACC-257 melanoma, 4.34 µM; in the experiment with HL-60(TB) leukemia, 3.71 µM; with A549 NSCLC, 17.2 µM. For the same molecule, the TGI is 24.8 µM in the experiment on SF-268 CNS, 17.6 µM with TK-10 renal, 11 µM with CCRF-CEM leukemia and 3.8 µM in the experiment on M14 melanoma.
As for `N#CN1CC[C@H](C(=O)Nc2ncc(-c3ccccc3)s2)C1`, the GI50 with HOP-62 NSCLC is 1.37 µM; in the experiment on SK-OV-3 ovarian, 2.2 µM; in the experiment with KM12 colon it was 0.592 µM; in the experiment with UACC-257 melanoma, 1.52 µM; in the experiment with HL-60(TB) leukemia, 0.269 µM; in the experiment with A549 NSCLC, 1.9 µM. Further, the GI50 is 0.789 µM in the experiment on SF-268 CNS, 1.19 µM in the experiment with TK-10 renal, 0.271 µM with CCRF-CEM leukemia and 0.495 µM in the experiment with M14 melanoma. Moreover, the TGI with HOP-62 NSCLC is 4.21 µM; with SK-OV-3 ovarian, 13.8 µM; in the experiment with KM12 colon, 2.78 µM; in the experiment on UACC-257 melanoma, 3.73 µM; in the experiment with HL-60(TB) leukemia it was 0.652 µM; in the experiment on A549 NSCLC, 8.61 µM. The TGI with SF-268 CNS was 4.23 µM; in the experiment on TK-10 renal, 2.99 µM; in the experiment with CCRF-CEM leukemia it was above 100 µM; with M14 melanoma, 2.22 µM.
On to `CCOC(=O)C1C(c2ccc(Br)cc2)N(Cc2ccccc2)C(c2ccc(Br)cc2)C(C(=O)OC)S1(=O)=O` (stereo not given), for which the TGI in the experiment on HOP-62 NSCLC, with SK-OV-3 ovarian, with KM12 colon, in the experiment on UACC-257 melanoma, in the experiment on HL-60(TB) leukemia and in the experiment with A549 NSCLC was above 100 µM each time. The TGI in the experiment on SF-268 CNS, in the experiment on TK-10 renal, in the experiment on CCRF-CEM leukemia and in the experiment on M14 melanoma was above 100 µM throughout.
On to `Cc1cc(OC2OC(CO)C(O)C(O)C2O)ccc1O` (stereo not given), for which the TGI with HOP-62 NSCLC, in the experiment with SK-OV-3 ovarian, in the experiment with KM12 colon, in the experiment on UACC-257 melanoma, with HL-60(TB) leukemia and in the experiment with A549 NSCLC was above 100 µM throughout. Moreover, the TGI with SF-268 CNS, in the experiment on TK-10 renal, in the experiment with CCRF-CEM leukemia and with M14 melanoma was above 100 µM in each case.

For the origin of these results see PubChem BioAssay (NCI).
